Laboratory results as given in US20170226133A1, “Gold (I)-Phosphine Compounds as Anti-Bacterial Agents” (Auspherix Limited, priority 2014, published 2017).

How the values were obtained:
[1] = tested on: human hepatocyte cell line (HepG2); assay: HepG2 cell inhibition assay (CCK-8 cell viability); type: cell-based; details: 50% growth inhibition, 24 hours
Protocol: Cell counting kit-8 (Sigma, CCK-8) assays were performed to assess the effect of compounds on cell viability. The assay is based on the reduction of a water-soluble tetrazolium salt (WST-8) by cellular dehydrogenases to a formazan dye which can be detected spectroscopically. 96-well plates were seeded with the human hepatocyte cell line (HepG2) at approximately 8×10^3 cells per well in Minimum Essential Medium Eagle (EMEM) with Earle's salts and sodium bicarbonate supplemented with 10% heat-inactivated foetal bovine serum 2 mM glutamine and 1% non-essential amino acids (NEAA). The following day serial dilutions of compounds (dissolved and diluted in DMSO) were added to the cells in duplicates. Control included an ‘untreated’ control where cells were grown in the presence of 1% DMSO and a medium only control (plus 1% DMSO). After 24 hours CCK-8 reagent (10 μl) was added to each well and cell viability was assessed by measuring the absorbance at a wavelength of 450 nm after 2-3 h hours. Only living cells can reduce the tetrazolium salts into coloured formazan products. Results were expressed as 50% growth inhibition (TD50) values compared to ‘untreated’ control. The therapeutic index was calculated as the ratio of the dose that produces growth inhibition in 50% of HepG2 cells divided by the dose where 50% of S. aureus or E. coli growth is inhibited.

[2] = tested on: chinese hamster ovary cells (CHO); assay: CHO toxicity assay (CCK-8 cell viability); type: cell-based; details: 50% growth inhibition, 24 hours
Protocol: Cell counting kit-8 (Sigma, CCK-8) assays were performed to assess the effect of compounds on cell viability. The assay is based on the reduction of a water-soluble tetrazolium salt (WST-8) by cellular dehydrogenases to a formazan dye which can be detected spectroscopically. 96-well plates were seeded with chinese hamster ovary cells (CHO) cells at 7×10^3 cells per well in Dulbecco's modified Eagle's medium nutrient mixture F-12 Ham (containing 15 mM HEPES, NaHCO3, pyridoxine and L-glutamine) supplemented with 10% fetal bovine serum (FBS). The following day serial dilutions of compounds (dissolved and diluted in DMSO) were added to the cells in duplicates. Control included an ‘untreated’ control where cells were grown in the presence of 1% DMSO and a medium only control (plus 1% DMSO). After 24 hours CCK-8 reagent (10 μl) was added to each well and cell viability was assessed by measuring the absorbance at a wavelength of 450 nm after 2.5-3 hours. Only living cells can reduce the tetrazolium salts into coloured formazan products. Results were expressed as 50% growth inhibition (TD50) values compared to ‘untreated’ control.
The therapeutic index was calculated as the ratio of the dose that produces growth inhibition in 50% of CHO cells divided by the dose where 50% of S. aureus growth is inhibited.

[3] = tested on: S. aureus NCTC 8325 biofilm; assay: Preformed S. aureus biofilm assay (crystal violet); type: cell-based, Staphylococcus aureus; details: S. aureus NCTC 8325, 24 hours preformed biofilm, 24 hours exposure
Protocol: The effect of a test compound on the formation of a S. aureus biofilm may be assessed using a biofilm prevention assay as described by Merritt et al. Current Protocols in Microbiology, 2011, 1B.1.1-1B1.18 with slight modifications. Briefly, S. aureus NCTC 8325, MRSA (RPAH18) and MRSA (MW2) are grown overnight in Tryptic soy broth (TSB) and diluted to between 1/50 and 1/100 before 150 μL is added to the wells of a flat bottomed 96-well plate. Three microliters of auranofin at the appropriate dilution in DMSO are added to the wells in duplicate. Controls included a serial dilution of lincomycin in ethanol (to assess plate to plate variation), a positive control with bacteria alone in TSB with 2% DMSO and a negative (no bacteria) control with 150 μL TSB containing 2% DMSO. Plates are sealed with AeraSeal™ and incubated at 37° C. for 24 hours. The plates are then washed three times with PBS, dried at 60° C. for 1 hour and stained with crystal violet for 1 hour. The plates are again washed three times with water, dried and scanned prior to the addition of 33% acetic acid to re-solubilize the crystal violet stain bound to the adherent cells. Absorbance is then measured at 595 nm and expressed as a percentage of the bacteria only control.
The effect of a test compound on preformed S. aureus biofilms can also be assessed. Briefly S. aureus NCTC 8325 is plated in 96-well plates as described in above and incubated 37° C. for 24 hours. Biofilms are then washed 3 times with TSB and 150 μL of fresh TSB and 3 μL of auranofin at the appropriate dilution in DMSO was added to the wells in duplicate. Plates are again sealed with AeraSeal™ and reincubated 37° C. for 24 hours. Biofilm is then detected as described above.

G. mellonella larvae = assay: Galleria mellonella model, toxicity of compound alone; type: in vivo; details: uninfected larvae
Protocol: (§1) G. mellonella larvae at 5th or 6th instar stage were purchased from a commercial supplier and used within 3 days. Prior to infection larvae were kept at room temperature. Larvae were infected with bacteria (various Gram positive and negative bacteria, including S. aureus, K. pneumoniae, E. coli and P. aeruginosa) using a sterile Hamilton syringe. Bacteria cultures were grown overnight, washed ×3 in PBS and resuspended in PBS. Larvae were wiped with 70% ethanol and 10 μl of bacteria solution (to cause 80% death within 3-4 days) was injected into the bottom right proleg of the larvae. Larvae injected with 10 μl of PBS were used as negative controls. Larvae were then placed in petri dishes (1 dish per condition) containing filter paper at the bottom of the dish at 37° C. After various time points post infection (1-6 h), larvae were taken from the incubator wiped again with 70% ethanol and injected with 10 μl of various concentrations of compound, dissolved in either 5% dimethyl sulfoxide, 5% ethanol or 5% 1-methyl-2-pyrrolidinone into a proleg on the left hand-side. Control larvae received 10 μl of 5% solvent. Ten larvae were injected for each condition. To assess the toxicity of the compound, larvae were injected with various concentrations of compound alone. Larvae were returned to a 37° C. incubator and checked daily. Larvae were considered dead when no movement occurred when touched with a blunt pair of forceps. […] Numbers of dead larvae were recorded each day.
Survival Proportions Following Dosing with 10 μl of Compound 8 Solutions of Varying Strengths

[4] = tested on: S. aureus infection of G. mellonella larvae; assay: Galleria mellonella model, efficacy after S. aureus infection; type: in vivo; details: S. aureus infected larvae
Protocol: as §1, with “daily.” for “daily. Larvae were considered dead when no movement occurred when touched with a blunt pair of forceps.”, “day. […]” for “day.”

SMILES: C[P](C)(C)=[Au][S]c1nc2ccccc2[nH]1 [Compound 1]
- HepG2 cell TD50 [1]: 4 µg/mL
- CHO cell TD50 [2]: 3.2 µg/mL

SMILES: COC(=O)[C@H](C[S][Au]=[P](C)(C)C)NC(C)=O [Compound 2]
- effect on preformed S. aureus biofilm [3]: disrupted the biofilm
- HepG2 cell TD50 [1]: 11 µg/mL
- CHO cell TD50 [2]: 6.4 µg/mL

SMILES: C[P](C)(C)=[Au][S]c1nc2ncccc2o1 [Compound 3]
- effect on preformed S. aureus biofilm [3]: disrupted the biofilm
- HepG2 cell TD50 [1]: 9 µg/mL
- CHO cell TD50 [2]: 5.0 µg/mL

SMILES: CC(=O)N[C@@H](C[S][Au]=[P](C)(C)C)C(N)=O [Compound 4]
- effect on preformed S. aureus biofilm [3]: disrupted the biofilm
- HepG2 cell TD50 [1]: 22 µg/mL

SMILES: C[P](C)(C)=[Au][S]c1nc2cccnc2[nH]1 [Compound 7]
- effect on preformed S. aureus biofilm [3]: disrupted the biofilm
- HepG2 cell TD50 [1]: 12.5 µg/mL

SMILES: CCOC(=O)[C@H](C[S][Au]=[P](C)(C)C)NC(C)=O [Compound 8]
- effect on preformed S. aureus biofilm [3]: disrupted the biofilm
- HepG2 cell TD50 [1]: 9.5 µg/mL
- Survival proportions (G. mellonella larvae; 3.75 mg/kg, Day 1): 100
- Survival proportions (G. mellonella larvae; 3.75 mg/kg, Day 2): 100
- Survival proportions (G. mellonella larvae; 3.75 mg/kg, Day 3): 100
- Survival proportions (G. mellonella larvae; 3.75 mg/kg, Day 4): 100
- Survival proportions (G. mellonella larvae; 7.5 mg/kg, Day 1): 100
- Survival proportions (G. mellonella larvae; 7.5 mg/kg, Day 2): 100
- Survival proportions (G. mellonella larvae; 7.5 mg/kg, Day 3): 100
- Survival proportions (G. mellonella larvae; 7.5 mg/kg, Day 4): 100
- Survival proportions (G. mellonella larvae; 15 mg/kg, Day 1): 100
- Survival proportions (G. mellonella larvae; 15 mg/kg, Day 2): 100
- Survival proportions (G. mellonella larvae; 15 mg/kg, Day 3): 100
- Survival proportions (G. mellonella larvae; 15 mg/kg, Day 4): 100
- Survival proportions (G. mellonella larvae; 30 mg/kg, Day 1): 100
- Survival proportions (G. mellonella larvae; 30 mg/kg, Day 2): 90
- Survival proportions (G. mellonella larvae; 30 mg/kg, Day 3): 90
- Survival proportions (G. mellonella larvae; 30 mg/kg, Day 4): 90
- Survival proportions (G. mellonella larvae; 60 mg/kg, Day 1): 100
- Survival proportions (G. mellonella larvae; 60 mg/kg, Day 2): 80
- Survival proportions (G. mellonella larvae; 60 mg/kg, Day 3): 60
- Survival proportions (G. mellonella larvae; 60 mg/kg, Day 4): 50
- mean survival rates ([4]; 2 mg/kg (p=0.02)): significantly increased
- mean survival rates ([4]; 4 mg/kg (p=0.04)): significantly increased

SMILES: C[P](C)(C)=[Au][S]c1ccccc1 [Compound 10]
- effect on preformed S. aureus biofilm [3]: disrupted the biofilm
- HepG2 cell TD50 [1]: 2 µg/mL

SMILES: C[P](C)(C)=[Au][S]c1ccccn1 [Compound 11]
- effect on preformed S. aureus biofilm [3]: disrupted the biofilm
- HepG2 cell TD50 [1]: 4.5 µg/mL

SMILES: C[P](C)(C)=[Au][S]c1ncccn1 [Compound 12]
- effect on preformed S. aureus biofilm [3]: disrupted the biofilm
- HepG2 cell TD50 [1]: 4.5 µg/mL

SMILES: CN1CCC([S][Au]=[P](C)(C)C)CC1 [Compound 13]
- HepG2 cell TD50 [1]: 15 µg/mL

SMILES: C[P](C)(C)=[Au][S]c1nc2ncccc2s1 [Compound 14]
- effect on preformed S. aureus biofilm [3]: disrupted the biofilm
- HepG2 cell TD50 [1]: 7 µg/mL

SMILES: C[P](C)(C)=[Au][S][C@H]1CC[C@H](O)CC1 [Compound 15]
- effect on preformed S. aureus biofilm [3]: disrupted the biofilm
- HepG2 cell TD50 [1]: 4.5 µg/mL

SMILES: C[P](C)(C)=[Au][S]C1CCOCC1 [Compound 16]
- HepG2 cell TD50 [1]: 4.5 µg/mL

SMILES: CCOC(=O)[C@H](C[Se][Au]=[P](C)(C)C)NC(C)=O [Compound 18]
- HepG2 cell TD50 [1]: >50 µg/mL

SMILES: C[P](C)(C)=[Au][S]c1cccnc1 [Compound 19]
- HepG2 cell TD50 [1]: 3 µg/mL
